# Literature values, collected in patent US6780436B1, “Solid oral pharmaceutical formulation of modified release that contains an acid labile benzimidazole compound” (Laboratorios Del Dr. Esteve, SA, priority 1999, dated 2004).
# Details: hard gelatin capsules that contain omeprazole pellets with enteric coating; stated 'in general' in the background
smiles,measurement,value
"COc1ccc2[nH]c([S+]([O-])Cc3ncc(C)c(OC)c3C)nc2c1 (stereo not shown) [omeprazole, 5-methoxy-2[[(4-methoxy-3,5-dimethyl-2-pyridinyl)methyl]sulphinyl]-1H-benzimidazole]",time of peak plasma concentration after administration,2 h
